Data taken from ChEMBL document CHEMBL1154795, “Aptamers as a model for functional evaluation of LNA and 2'-amino LNA” (Bioorg Med Chem Lett, 2009).

test: Binding affinity to avidin by surface plasmon resonance assay

| Compound | Kd |
| --- | --- |
| Cc1cn([C@@H]2O[C@H](COP(=O)(O)O[C@H]3[C@@H](O)[C@H](n4ccc(N)nc4=O)O[C@@H]3COP(=O)(O)O[C@H]3[C@@H](O)[C@H](n4cnc5c(=O)[nH]c(N)nc54)O[C@@H]3COP(=O)(O)O[C@H]3[C@@H](O)[C@H](n4cnc5c(=O)[nH]c(N)nc54)O[C@@H]3CO)[C@@H](OP(=O)(O)OC[C@H]3O[C@@H](n4cnc5c(N)ncnc54)[C@H](O)[C@@H]3OP(=O)(O)OC[C@H]3O[C@@H](n4cnc5c(N)ncnc54)[C@H](O)[C@@H]3OP(=O)(O)OC[C@H]3O[C@@H](n4cc(C)c(=O)[nH]c4=O)[C@H](O)[C@@H]3OP(=O)(O)OC[C@H]3O[C@@H](n4cnc5c(N)ncnc54)[C@H](O)[C@@H]3OP(=O)(O)OC[C@H]3O[C@@H](n4cnc5c(=O)[nH]c(N)nc54)[C@H](O)[C@@H]3OP(=O)(O)OC[C@H]3O[C@@H](n4cnc5c(N)ncnc54)[C@H](O)[C@@H]3OP(=O)(O)OC[C@H]3O[C@@H](n4ccc(N)nc4=O)[C@H](O)[C@@H]3OP(=O)(O)OC[C@H]3O[C@@H](n4ccc(N)nc4=O)[C@H](O)[C@@H]3OP(=O)(O)OC[C@H]3O[C@@H](n4cc(C)c(=O)[nH]c4=O)[C@H](O)[C@@H]3OP(=O)(O)OC[C@H]3O[C@@H](n4cnc5c(=O)[nH]c(N)nc54)[C@H](O)[C@@H]3OP(=O)(O)OC[C@H]3O[C@@H](n4cnc5c(=O)[nH]c(N)nc54)[C@H](O)[C@@H]3OP(=O)(O)OC[C@H]3O[C@@H](n4cnc5c(=O)[nH]c(N)nc54)[C@H](O)[C@@H]3OP(=O)(O)OC[C@H]3O[C@@H](n4cnc5c(=O)[nH]c(N)nc54)[C@H](O)[C@@H]3OP(=O)(O)OC[C@H]3O[C@@H](n4cc(C)c(=O)[nH]c4=O)[C@H](O)[C@@H]3OP(=O)(O)OC[C@H]3O[C@@H](n4cc(C)c(=O)[nH]c4=O)[C@H](O)[C@@H]3OP(=O)(O)OC[C@H]3O[C@@H](n4cnc5c(=O)[nH]c(N)nc54)[C@H](O)[C@@H]3OP(=O)(O)OC[C@H]3O[C@@H](n4cnc5c(=O)[nH]c(N)nc54)[C@H](O)[C@@H]3OP(=O)(O)O)[C@H]2O)c(=O)[nH]c1=O | 9.78 nM |
| COP(=O)(O)O[C@H]1[C@@H](O)[C@H](n2cnc3c(=O)[nH]c(N)nc32)O[C@@H]1COP(=O)(O)O[C@H]1[C@@H](O)[C@H](n2cnc3c(=O)[nH]c(N)nc32)O[C@@H]1COP(=O)(O)O[C@H]1[C@@H](O)[C@H](n2cc(C)c(=O)[nH]c2=O)O[C@@H]1COP(=O)(O)O[C@H]1[C@H]2NC[C@]1(COP(=O)(O)O[C@H]1[C@@H](O)[C@H](n3cnc4c(=O)[nH]c(N)nc43)O[C@@H]1COP(=O)(O)O[C@H]1[C@@H](O)[C@H](n3cnc4c(=O)[nH]c(N)nc43)O[C@@H]1COP(=O)(O)O[C@H]1[C@@H](O)[C@H](n3cnc4c(=O)[nH]c(N)nc43)O[C@@H]1COP(=O)(O)O[C@H]1[C@@H](O)[C@H](n3cnc4c(=O)[nH]c(N)nc43)O[C@@H]1COP(=O)(O)O[C@H]1[C@@H](O)[C@H](n3cc(C)c(=O)[nH]c3=O)O[C@@H]1COP(=O)(O)O[C@H]1[C@@H](O)[C@H](n3ccc(N)nc3=O)O[C@@H]1COP(=O)(O)O[C@H]1[C@@H](O)[C@H](n3ccc(N)nc3=O)O[C@@H]1COP(=O)(O)O[C@H]1[C@@H](O)[C@H](n3cnc4c(N)ncnc43)O[C@@H]1COP(=O)(O)O[C@H]1[C@@H](O)[C@H](n3cnc4c(=O)[nH]c(N)nc43)O[C@@H]1COP(=O)(O)O[C@H]1[C@@H](O)[C@H](n3cnc4c(N)ncnc43)O[C@@H]1COP(=O)(O)O[C@H]1[C@@H](O)[C@H](n3cc(C)c(=O)[nH]c3=O)O[C@@H]1COP(=O)(O)O[C@H]1[C@@H](O)[C@H](n3cnc4c(N)ncnc43)O[C@@H]1COP(=O)(O)O[C@H]1[C@@H](O)[C@H](n3cnc4c(N)ncnc43)O[C@@H]1COP(=O)(O)O[C@H]1[C@@H](O)[C@H](n3cc(C)c(=O)[nH]c3=O)O[C@@H]1COP(=O)(O)O[C@H]1[C@@H](O)[C@H](n3ccc(N)nc3=O)O[C@@H]1COP(=O)(O)O[C@H]1[C@H]3OC[C@]1(COP(=O)(O)O[C@H]1[C@@H](O)[C@H](n4cnc5c(=O)[nH]c(N)nc54)O[C@@H]1CO)O[C@H]3n1cnc3c(=O)[nH]c(N)nc31)O[C@H]2n1cc(C)c(=O)[nH]c1=O | 4.2 nM |
| Cc1cn([C@@H]2O[C@H](COP(=O)(O)O[C@H]3[C@@H](O)[C@H](n4ccc(N)nc4=O)O[C@@H]3COP(=O)(O)O[C@H]3[C@@H](O)[C@H](n4cnc5c(=O)[nH]c(N)nc54)O[C@@H]3COP(=O)(O)O[C@H]3[C@@H](O)[C@H](n4cnc5c(=O)[nH]c(N)nc54)O[C@@H]3CO)[C@@H](OP(=O)(O)OC[C@H]3O[C@@H](n4cnc5c(N)ncnc54)[C@H](O)[C@@H]3OP(=O)(O)OC[C@H]3O[C@@H](n4cnc5c(N)ncnc54)[C@H](O)[C@@H]3OP(=O)(O)OC[C@H]3O[C@@H](n4cc(C)c(=O)[nH]c4=O)[C@H](O)[C@@H]3OP(=O)(O)OC[C@H]3O[C@@H](n4cnc5c(N)ncnc54)[C@H](O)[C@@H]3OP(=O)(O)OC[C@H]3O[C@@H](n4cnc5c(=O)[nH]c(N)nc54)[C@H](O)[C@@H]3OP(=O)(O)OC[C@H]3O[C@@H](n4cnc5c(N)ncnc54)[C@H](O)[C@@H]3OP(=O)(O)OC[C@H]3O[C@@H](n4ccc(N)nc4=O)[C@H](O)[C@@H]3OP(=O)(O)OC[C@H]3O[C@@H](n4ccc(N)nc4=O)[C@H](O)[C@@H]3OP(=O)(O)OC[C@H]3O[C@@H](n4cc(C)c(=O)[nH]c4=O)[C@H](O)[C@@H]3OP(=O)(O)OC[C@H]3O[C@@H](n4cnc5c(=O)[nH]c(N)nc54)[C@H](O)[C@@H]3OP(=O)(O)OC[C@H]3O[C@@H](n4cnc5c(=O)[nH]c(N)nc54)[C@H](O)[C@@H]3OP(=O)(O)O)[C@H]2O)c(=O)[nH]c1=O | 13.1 nM |
| Cc1cn([C@@H]2O[C@H](COP(=O)(O)O[C@H]3[C@@H](O)[C@H](n4ccc(N)nc4=O)O[C@@H]3COP(=O)(O)O[C@H]3[C@H]4OC[C@]3(COP(=O)(O)O[C@H]3[C@@H](O)[C@H](n5cnc6c(=O)[nH]c(N)nc65)O[C@@H]3CO)O[C@H]4n3cnc4c(=O)[nH]c(N)nc43)[C@@H](OP(=O)(O)OC[C@H]3O[C@@H](n4cnc5c(N)ncnc54)[C@H](O)[C@@H]3OP(=O)(O)OC[C@H]3O[C@@H](n4cnc5c(N)ncnc54)[C@H](O)[C@@H]3OP(=O)(O)OC[C@H]3O[C@@H](n4cc(C)c(=O)[nH]c4=O)[C@H](O)[C@@H]3OP(=O)(O)OC[C@H]3O[C@@H](n4cnc5c(N)ncnc54)[C@H](O)[C@@H]3OP(=O)(O)OC[C@H]3O[C@@H](n4cnc5c(=O)[nH]c(N)nc54)[C@H](O)[C@@H]3OP(=O)(O)OC[C@H]3O[C@@H](n4cnc5c(N)ncnc54)[C@H](O)[C@@H]3OP(=O)(O)OC[C@H]3O[C@@H](n4ccc(N)nc4=O)[C@H](O)[C@@H]3OP(=O)(O)OC[C@H]3O[C@@H](n4ccc(N)nc4=O)[C@H](O)[C@@H]3OP(=O)(O)OC[C@H]3O[C@@H](n4cc(C)c(=O)[nH]c4=O)[C@H](O)[C@@H]3OP(=O)(O)OC[C@H]3O[C@@H](n4cnc5c(=O)[nH]c(N)nc54)[C@H](O)[C@@H]3OP(=O)(O)OC[C@H]3O[C@@H](n4cnc5c(=O)[nH]c(N)nc54)[C@H](O)[C@@H]3OP(=O)(O)OC[C@H]3O[C@@H](n4cnc5c(=O)[nH]c(N)nc54)[C@H](O)[C@@H]3OP(=O)(O)OC[C@H]3O[C@@H](n4cnc5c(=O)[nH]c(N)nc54)[C@H](O)[C@@H]3OP(=O)(O)OC[C@H]3O[C@@H](n4cc(C)c(=O)[nH]c4=O)[C@H](O)[C@@H]3OP(=O)(O)OC[C@@]34CN[C@@H]([C@H](n5cc(C)c(=O)[nH]c5=O)O3)[C@@H]4OP(=O)(O)OC[C@H]3O[C@@H](n4cnc5c(=O)[nH]c(N)nc54)[C@H](O)[C@@H]3OP(=O)(O)OC[C@H]3O[C@@H](n4cnc5c(=O)[nH]c(N)nc54)[C@H](O)[C@@H]3OP(=O)(O)O)[C@H]2O)c(=O)[nH]c1=O | 4.97 nM |
